Measurements from patent US12383556B2, “Methods of treating Sjögren's syndrome using a Bruton's tyrosine kinase inhibitor” (NOVARTIS AG, priority 2019, dated 2025).
Read-outs that look alike come from different tables or passages of the source.

Test: First-in-human Part 2 multiple ascending dose q.d. blood and urine PK
Type: in vivo
Conditions: human, oral; for Cmax: read-out: Cmax; for MRT: read-out: MRT; for Vd/F: read-out: Vss/F; for half-life: read-out: T½ (converted)
From the text: First-in-human study in up to approximately 168 healthy volunteers (HVs), of which 64 (in Parts 2 & 4) had asymptomatic atopic diathesis. • Part 1 was a double-blind (subject and investigator blind, sponsor unblinded), placebo-controlled single ascending dose (SAD) escalation study of 10 cohorts (N=80) • Part 2 was a double-blind (subject and investigator blind, sponsor unblinded), placebo-controlled multiple ascending dose (MAD) (13 doses over 12 days) escalation study employing once daily dosing in 6 cohorts in healthy volunteers with asymptomatic atopic diathesis (N=48) • Part 3 was a single dose open-label crossover food effect study in 12 HVs • Part 4 was a double-blind (subject and investigator blind, sponsor unblinded), placebo-controlled multiple dose (25 doses over 12 days) study employing twice daily dosing in 2 cohorts of healthy volunteers with asymptomatic atopic diathesis (N=16)
In Parts 2 and 4, subjects were admitted on Day −2 or −1 for baseline safety assessments and to confirm eligibility. Eligible subjects received the first dose of compound (I) under fasting conditions on Day 1, and continued to take study medication under fasting conditions up to and including Day 12. Subjects were domiciled from Day −2 or −1 until the morning of Day 16, which equals 96 hours after the last dose of compound (I) was received. In Parts 2 and 4, the study medication was given once daily and twice daily respectively (details are found in the schedule of assessments).
Subjects were assigned to one of the following 6 cohorts. In each cohort, 8 subjects were randomized to either compound (I) or matching placebo in a 6:2 ratio. • Cohort 1: multiple oral doses of 10 mg compound (I) or matching placebo • Cohort 2: multiple oral doses of 25 mg compound (I) or matching placebo • Cohort 3: multiple oral doses of 50 mg compound (I) or matching placebo • Cohort 4: multiple oral doses of 100 mg compound (I) or matching placebo • Cohort 5: multiple oral doses of 400 mg compound (I) or matching placebo • Cohort 6: multiple oral doses of up to 600 mg compound (I) or matching placebo
Pharmacokinetic samples were obtained in blood and evaluated in all subjects at all dose levels. The samples from placebo subjects were not analyzed. The samples for PK assessments from subjects were collected at time points defined in the study. Compound (I) concentrations were determined in blood by a validated LC-MS/MS method.

[1] = blood, 10 mg, 10 mg qd, Day 1, blood, Median (Min-Max)
[2] = blood, 10 mg, 10 mg qd, Day 12, blood, Median (Min-Max)
[3] = blood, 25 mg, 25 mg qd, Day 1, blood, Median (Min-Max)
[4] = blood, 25 mg, 25 mg qd, Day 12, blood, Median (Min-Max)
[5] = blood, 50 mg, 50 mg qd, Day 1, blood, Median (Min-Max)
[6] = blood, 50 mg, 50 mg qd, Day 12, blood, Median (Min-Max)
[7] = blood, 100 mg, 100 mg qd, Day 12, blood, Median (Min-Max)
[8] = blood, 400 mg, 400 mg qd, Day 12, blood, Median (Min-Max)
[9] = blood, 600 mg, 600 mg qd, Day 12, blood, Median (Min-Max)

Q: Which results are given for `C=CC(=O)N(C)CCOc1c(N)ncnc1-c1cc(F)cc(NC(=O)c2ccc(C3CC3)cc2F)c1C` [Compound of Formula (I), N-(3-(6-Amino-5-(2-(N-methylacrylamido)ethoxy)pyrimidin-4-yl)-5-fluoro-2-methylphenyl)-4-cyclopropyl-2-fluorobenzamide]?
A: AUC(0-t) (blood, 10 mg, 10 mg qd, Day 1, blood, Median (Min-Max), read-out: AUClast): 4.4 ng·h/mL; Cmax [1]: 8.03 ng/mL; MRT [1]: 0.766 h; Vd/F (blood, 10 mg, 10 mg qd, Day 12, blood, Mean ± SD): 554 ± 90.4 L; Tmax [2]: 0.625 h; Cmax [2]: 17.2 ng/mL; Vd/F [2]: 562 L; AUC(0-t) (blood, 25 mg, 25 mg qd, Day 1, blood, Mean ± SD, read-out: AUC0-24): 44.9 ± 25.2 ng·h/mL; AUC(0-t) (blood, 25 mg, 25 mg qd, Day 1, blood, Mean ± SD, read-out: AUClast): 43.9 ± 24.6 ng·h/mL; MRT (blood, 25 mg, 25 mg qd, Day 1, blood, Mean ± SD): 1.18 ± 0.49 h; AUC(0-t) (blood, 25 mg, 25 mg qd, Day 1, blood, Median (Min-Max), read-out: AUC0-24): 46.6 ng·h/mL; AUC(0-t) (blood, 25 mg, 25 mg qd, Day 1, blood, Median (Min-Max), read-out: AUClast): 45.5 ng·h/mL; Cmax [3]: 37.3 ng/mL; MRT [3]: 1.17 h; Vd/F (blood, 25 mg, 25 mg qd, Day 12, blood, Mean ± SD): 407 ± 208 L; Cmax [4]: 78.4 ng/mL; Vd/F [4]: 334 L; AUC(0-t) (blood, 50 mg, 50 mg qd, Day 1, blood, Mean ± SD, read-out: AUC0-24): 116 ± 32.9 ng·h/mL; AUC(0-t) (blood, 50 mg, 50 mg qd, Day 1, blood, Mean ± SD, read-out: AUClast): 113 ± 34.2 ng·h/mL; MRT (blood, 50 mg, 50 mg qd, Day 1, blood, Mean ± SD): 2.53 ± 1.17 h; Tmax [5]: 0.5 h; AUC(0-t) (blood, 50 mg, 50 mg qd, Day 1, blood, Median (Min-Max), read-out: AUC0-24): 107 ng·h/mL; AUC(0-t) (blood, 50 mg, 50 mg qd, Day 1, blood, Median (Min-Max), read-out: AUClast): 103 ng·h/mL; Cmax [5]: 70.1 ng/mL; MRT [5]: 2.44 h; Vd/F (blood, 50 mg, 50 mg qd, Day 12, blood, Mean ± SD): 431 ± 172 L; Tmax [6]: 1 h; Vd/F [6]: 346 L; MRT (blood, 100 mg, 100 mg qd, Day 1, blood, Median (Min-Max)): 2.16 h; Vd/F (blood, 100 mg, 100 mg qd, Day 12, blood, Mean ± SD): 1910 ± 2780 L; Cmax [7]: 205 ng/mL; Vd/F [7]: 338 L; AUC(0-t) (blood, 400 mg, 400 mg qd, Day 1, blood, Median (Min-Max), read-out: AUC0-24): 826 ng·h/mL; AUC(0-t) (blood, 400 mg, 400 mg qd, Day 1, blood, Median (Min-Max), read-out: AUClast): 826 ng·h/mL; MRT (blood, 400 mg, 400 mg qd, Day 1, blood, Median (Min-Max)): 2.94 h; Vd/F (blood, 400 mg, 400 mg qd, Day 12, blood, Mean ± SD): 4400 ± 3340 L; Cmax [8]: 476 ng/mL; Vd/F [8]: 3440 L; AUC(0-t) (blood, 600 mg, 600 mg qd, Day 1, blood, Median (Min-Max), read-out: AUC0-24): 932 ng·h/mL; AUC(0-t) (blood, 600 mg, 600 mg qd, Day 1, blood, Median (Min-Max), read-out: AUClast): 931 ng·h/mL; MRT (blood, 600 mg, 600 mg qd, Day 1, blood, Median (Min-Max)): 3.22 h; Vd/F (blood, 600 mg, 600 mg qd, Day 12, blood, Mean ± SD): 7130 ± 5120 L; Cmax [9]: 475 ng/mL; Vd/F [9]: 7070 L; concentration at 24 h (blood, multiple doses, typical, read-out: blood concentration at 24 hours post last dose): < 1 ng/mL; AUC(0-inf) (whole blood, 10 mg, 10 mg qd, Day 12, blood, Mean ± SD): 24.7 ± 3.65 ng·h/mL; AUC(0-t) (whole blood, 10 mg, 10 mg qd, Day 12, blood, Mean ± SD, read-out: AUC0-24): 24 ± 3.6 ng·h/mL; AUC(0-t) (whole blood, 10 mg, 10 mg qd, Day 12, blood, Mean ± SD, read-out: AUClast): 22.9 ± 3.5 ng·h/mL; AUC(0-inf) (whole blood, 10 mg, 10 mg qd, Day 12, blood, Median (Min-Max)): 24.3 ng·h/mL; AUC(0-t) (whole blood, 10 mg, 10 mg qd, Day 12, blood, Median (Min-Max), read-out: AUC0-24): 23.6 ng·h/mL; AUC(0-t) (whole blood, 10 mg, 10 mg qd, Day 12, blood, Median (Min-Max), read-out: AUClast): 22.4 ng·h/mL; AUC(0-inf) (whole blood, 25 mg, 25 mg qd, Day 12, blood, Mean ± SD): 117 ± 60.4 ng·h/mL; AUC(0-t) (whole blood, 25 mg, 25 mg qd, Day 12, blood, Mean ± SD, read-out: AUC0-24): 117 ± 60.9 ng·h/mL; AUC(0-t) (whole blood, 25 mg, 25 mg qd, Day 12, blood, Mean ± SD, read-out: AUClast): 114 ± 59.7 ng·h/mL; AUC(0-inf) (whole blood, 25 mg, 25 mg qd, Day 12, blood, Median (Min-Max)): 102 ng·h/mL; AUC(0-t) (whole blood, 25 mg, 25 mg qd, Day 12, blood, Median (Min-Max), read-out: AUC0-24): 101 ng·h/mL; AUC(0-t) (whole blood, 25 mg, 25 mg qd, Day 12, blood, Median (Min-Max), read-out: AUClast): 98.2 ng·h/mL; AUC(0-inf) (whole blood, 50 mg, 50 mg qd, Day 12, blood, Mean ± SD): 209 ± 80 ng·h/mL; AUC(0-t) (whole blood, 50 mg, 50 mg qd, Day 12, blood, Mean ± SD, read-out: AUC0-24): 209 ± 80.2 ng·h/mL; AUC(0-t) (whole blood, 50 mg, 50 mg qd, Day 12, blood, Mean ± SD, read-out: AUClast): 207 ± 80.4 ng·h/mL; AUC(0-inf) (whole blood, 50 mg, 50 mg qd, Day 12, blood, Median (Min-Max)): 181 ng·h/mL; AUC(0-t) (whole blood, 50 mg, 50 mg qd, Day 12, blood, Median (Min-Max), read-out: AUC0-24): 181 ng·h/mL; AUC(0-t) (whole blood, 50 mg, 50 mg qd, Day 12, blood, Median (Min-Max), read-out: AUClast): 179 ng·h/mL; AUC(0-inf) (whole blood, 100 mg, 100 mg qd, Day 12, blood, Mean ± SD): 577 ± 207 ng·h/mL; AUC(0-inf) (whole blood, 100 mg, 100 mg qd, Day 12, blood, Median (Min-Max)): 595 ng·h/mL; AUC(0-t) (whole blood, 100 mg, 100 mg qd, Day 12, blood, Median (Min-Max), read-out: AUC0-24): 429 ng·h/mL; AUC(0-t) (whole blood, 100 mg, 100 mg qd, Day 12, blood, Median (Min-Max), read-out: AUClast): 444 ng·h/mL; AUC(0-inf) (whole blood, 400 mg, 400 mg qd, Day 12, blood, Mean ± SD): 1330 ± 608 ng·h/mL; AUC(0-inf) (whole blood, 400 mg, 400 mg qd, Day 12, blood, Median (Min-Max)): 1210 ng·h/mL; AUC(0-t) (whole blood, 400 mg, 400 mg qd, Day 12, blood, Median (Min-Max), read-out: AUC0-24): 1140 ng·h/mL; AUC(0-t) (whole blood, 400 mg, 400 mg qd, Day 12, blood, Median (Min-Max), read-out: AUClast): 1180 ng·h/mL; AUC(0-inf) (whole blood, 600 mg, 600 mg qd, Day 12, blood, Mean ± SD): 1260 ± 338 ng·h/mL; AUC(0-inf) (whole blood, 600 mg, 600 mg qd, Day 12, blood, Median (Min-Max)): 1090 ng·h/mL; AUC(0-t) (whole blood, 600 mg, 600 mg qd, Day 12, blood, Median (Min-Max), read-out: AUC0-24): 1060 ng·h/mL; half-life (whole blood, 10 mg qd, Day 12, blood, Median (Min-Max)): 0.961 h; half-life (whole blood, 25 mg qd, Day 12, blood, Median (Min-Max)): 1.15 h; half-life (whole blood, 50 mg qd, Day 12, blood, Median (Min-Max)): 1.15 h
